Values of other authors, collected in patent US6617356B2, “Gel system for oral and topical administration of water insoluble and/or water intolerant drugs and supplements” (priority 2000, dated 2003).

Conditions: oral, 20 grams creatine monohydrate per day for five days

For `CN(CC(=O)O)C(=N)N.O` [creatine monohydrate], the “Muscle total creatine concentration” value is given as “increase” and the “Peak and total work production” value is given as “cumulative increase”.
